Measured values as given in patent publication US20070134261A1, “Effectors of innate immunity” (priority 2001, published 2007).
Residues, ends and D or L forms follow the SMILES beside them.

Test system: primary human macrophages
Test: Polynucleotide arrays of primary human macrophages treated with SEQ ID NO: 6 (Tables 27, 28)
Type: cell-based
Conditions: 50 μg/ml, 4 h

With CC[C@H](C)[C@H](NC(=O)[C@@H]1CCCN1C(=O)[C@H](CS)NC(=O)[C@H](CCCNC(=N)N)NC(=O)[C@@H](N)CC(C)C)C(=O)N[C@@H](C)C(=O)N1CCC[C@H]1C(=O)N[C@H](C(=O)N[C@H](C(=O)N1CCC[C@H]1C(=O)N[C@H](C(=O)N[C@@H](CS)C(=O)N[C@@H](CCCCN)C(=O)N[C@@H](CCCCN)C(=O)O)C(C)C)[C@@H](C)CC)C(C)C [SEQ ID NO: 6] (H-LRCPIAPVIPVCKK-OH; N-terminus and C-terminus assumed) the “Ratio peptide treated:control, Unknown” value (A433612) was 5.0, the “Ratio peptide treated:control, KIAA1278 protein” value (AB03104) was 2.9 and the “Ratio peptide treated:control, proteasome 26S subunit non-ATPase 13” value (AB009398) was 0.44. The “Ratio peptide treated:control, KIAA0532 protein” value (AB011104) was 2.8, the “Ratio peptide treated:control, KIAA0592 protein” value (AB011164) was 4.0 and the “Ratio peptide treated:control, IL-1 receptor-like 1” value (AB012701) was 0.35. The “Ratio peptide treated:control, interferon alpha-inducible protein” value (AB019565) was 0.35, the “Ratio peptide treated:control, KIAA0842 protein” value (AB020649) was 0.13 and the “Ratio peptide treated:control, KIAA0922 protein” value (AB023139) was 2.1. For the same compound, the “Ratio peptide treated:control, KIAA1013 protein” value (AB023230) was 3.4, the “Ratio peptide treated:control, protease, serine, 21” value (AB031331) was 2.0 and the “Ratio peptide treated:control, hypothetical protein FLJ20689” value (AB032978) was 2.9. For the same compound, the “Ratio peptide treated:control, cofactor required for Sp1 transcriptional activation subunit 3” value (AB033042) was 0.23, the “Ratio peptide treated:control, pancreatic zymogen granule membrane associated protein” value (AB035541) was 3.7 and the “Ratio peptide treated:control, Unknown” value (AB037838) was 0.14. The “Ratio peptide treated:control, CDC14 homolog A” value (AF000367) was 3.8, the “Ratio peptide treated:control, TNF receptor superfamily, member 10b” value (AF016266) was 0.37 and the “Ratio peptide treated:control, TNF superfamily, member 15” value (AF039390) was 0.46. The “Ratio peptide treated:control, transcription factor 21” value (AF047419) was 5.4, the “Ratio peptide treated:control, proteasome subunit alpha type, 7” value (AF054185) was 0.40 and the “Ratio peptide treated:control, Granulin” value (AF055008) was 0.14. For the same compound, the “Ratio peptide treated:control, matrix metalloproteinase 23A” value (AF056200) was 2.7, the “Ratio peptide treated:control, chromosome condensation 1-like” value (AF060219) was 4.8 and the “Ratio peptide treated:control, Unknown” value (AF068289) was 2.8. The “Ratio peptide treated:control, histone fold proteinCHRAC17” value (AF070640) was 3.8, the “Ratio peptide treated:control, NADH dehydrogenase 1 alpha subcomplex, 10” value (AF087661) was 2.1 and the “Ratio peptide treated:control, potassium voltage-gated channel KQT-like subfamily member 4” value (AF105202) was 3.9. For the same compound, the “Ratio peptide treated:control, FYN-binding protein” value (AF198052) was 3.3, the “Ratio peptide treated:control, c-Cbl-interacting protein” value (AF230904) was 2.4 and the “Ratio peptide treated:control, hypothetical protein FLJ20070” value (AK000077) was 3.4. For the same compound, the “Ratio peptide treated:control, hypothetical protein FLJ20495” value (AK000502) was 3.5, the “Ratio peptide treated:control, Unknown” value (AK001843) was 8.2 and the “Ratio peptide treated:control, peroxisome proliferative activated receptor delta” value (AL022721) was 0.46. For the same compound, the “Ratio peptide treated:control, proteasome 26S subunit non-ATPase, 10” value (AL031177) was 0.32, the “Ratio peptide treated:control, Unknown” value (AL031864) was 2.9 and the “Ratio peptide treated:control, Unknown” value (AL049263) was 0.06. The “Ratio peptide treated:control, DKFZP586B2420 protein” value (AL050143) was 5.9, the “Ratio peptide treated:control, Unknown” value (AL050370) was 0.38 and the “Ratio peptide treated:control, Unknown” value (AL109678) was 5.6. For the same compound, the “Ratio peptide treated:control, Unknown” value (AL117643) was 2.7, the “Ratio peptide treated:control, eukaryotic translation initiation factor 4A, isoform 2” value (AL137681) was 3.4 and the “Ratio peptide treated:control, Unknown” value (AL137715) was 4.4. For the same compound, the “Ratio peptide treated:control, proteasome subunit alpha type, 4” value (D00763) was 0.49, the “Ratio peptide treated:control, proteasome 26S subunit ATPase, 2” value (D11094) was 0.49 and the “Ratio peptide treated:control, defender against cell death 1” value (D15057) was 0.46. The “Ratio peptide treated:control, proteasome subunit beta type, 4” value (D26600) was 0.29, the “Ratio peptide treated:control, proteasome subunit beta type, 5” value (D29011) was 0.33 and the “Ratio peptide treated:control, proteasome 26S subunit non-ATPase 8” value (D38047) was 0.28. For the same compound, the “Ratio peptide treated:control, proteasome subunit beta type 7” value (D38048) was 0.22, the “Ratio peptide treated:control, KIAA0152 gene product” value (D63486) was 0.17 and the “Ratio peptide treated:control, Cryptochrome 1” value (D83702) was 3.8. The “Ratio peptide treated:control, TGFB1-induced anti-apoptotic factor 1” value (D86970) was 0.19, the “Ratio peptide treated:control, MAP kinase kinase 3” value (D87116) was 0.37 and the “Ratio peptide treated:control, proteasome 26S subunit ATPase, 1” value (L02426) was 0.49. For the same compound, the “Ratio peptide treated:control, MAP kinase kinase 1” value (L11284) was 2.4, the “Ratio peptide treated:control, MAP kinase 14” value (L35263) was 2.2 and the “Ratio peptide treated:control, interferon receptor 2” value (L42243) was 2.5. The “Ratio peptide treated:control, IL-1 receptor-associated kinase 1” value (L76191) was 0.45, the “Ratio peptide treated:control, LINE retrotransposable element 1” value (M22333) was 4.0 and the “Ratio peptide treated:control, TNF receptor superfamily member 1B” value (M32315) was 0.29. The “Ratio peptide treated:control, proteasome 26S subunit, ATPase, 3” value (M34079) was 0.35, the “Ratio peptide treated:control, proteasome subunit beta type, 6” value (M34079) was 0.38 and the “Ratio peptide treated:control, lymphocyte antigen” value (M38056) was 3.2. For the same compound, the “Ratio peptide treated:control, H1 histone family, member 4” value (M60748) was 3.0, the “Ratio peptide treated:control, Cathepsin D” value (M63138) was 0.36 and the “Ratio peptide treated:control, protein kinase, cAMP-dependent, regulatory, type I, beta” value (M65066) was 2.9. For the same compound, the “Ratio peptide treated:control, TGF, beta-induced,” value (M77349) was 0.37, the “Ratio peptide treated:control, S100 calcium-binding protein A4” value (M80563) was 0.31 and the “Ratio peptide treated:control, cathepsin E” value (M84424) was 2.7. For the same compound, the “Ratio peptide treated:control, actinin, alpha 3” value (M86407) was 6.9, the “Ratio peptide treated:control, interferon regulatory factor 2” value (NM 002199) was 2.0 and the “Ratio peptide treated:control, calumenin” value (NM_001219) was 2.9. The “Ratio peptide treated:control, glutathione peroxidase 3” value (NM_002084) was 0.15, the “Ratio peptide treated:control, LPS-induced TNF-alpha factor” value (NM_004862) was 0.41 and the “Ratio peptide treated:control, bone morphogenetic protein 1” value (NM_006129) was 2.1. For the same compound, the “Ratio peptide treated:control, MAP kinase kinase kinase 2” value (NM_006609) was 0.32, the “Ratio peptide treated:control, SDF receptor 1” value (NM_012428) was 0.35 and the “Ratio peptide treated:control, TERF1 (TRF1)-interacting nuclear factor 2” value (NM_012461) was 4.2. The “Ratio peptide treated:control, nuclear receptor binding protein” value (NM_013392) was 0.38, the “Ratio peptide treated:control, cyclin-dependent kinase inhibitor 1B” value (S76988) was 2.2 and the “Ratio peptide treated:control, POU domain, class 4, transcription factor 2” value (U06233) was 2.8. The “Ratio peptide treated:control, MAP kinase kinase kinase kinase 2” value (U07349) was 0.46, the “Ratio peptide treated:control, MAP kinase-activated protein kinase 2” value (U12779) was 0.34 and the “Ratio peptide treated:control, caspase 3” value (U13737) was 0.35. The “Ratio peptide treated:control, MAP kinase kinase 5” value (U25265) was 0.44, the “Ratio peptide treated:control, E2F transcription factor 5, p130-binding” value (U31556) was 3.5 and the “Ratio peptide treated:control, TNF superfamily member 10” value (U37518) was 0.46. The “Ratio peptide treated:control, integrin-linked kinase” value (U40282) was 0.13, the “Ratio peptide treated:control, guanine nucleotide binding protein, gamma transducing activity polypeptide 1” value (U41492) was 3.3 and the “Ratio peptide treated:control, mucosal vascular addressin cell adhesion molecule 1” value (U43628) was 3.2. The “Ratio peptide treated:control, 1-acylglycerol-3-phosphate O-acyltransferase 1” value (U56417) was 4.0, the “Ratio peptide treated:control, caspase 7” value (U67319) was 0.49 and the “Ratio peptide treated:control, apoptosis inhibitor 4” value (U75285) was 4.2. For the same compound, the “Ratio peptide treated:control, TNF receptor superfamily, member 14” value (U81232) was 0.26, the “Ratio peptide treated:control, bone morphogenetic protein receptor, type IB” value (U89326) was 2.1 and the “Ratio peptide treated:control, transferrin receptor” value (X01060) was 0.42. For the same compound, the “Ratio peptide treated:control, protease inhibitor 1 alpha-1-antitrypsin” value (X01683) was 0.40, the “Ratio peptide treated:control, Cathepsin L” value (X12451) was 0.44 and the “Ratio peptide treated:control, cytochrome c oxidase subunit Vic” value (X13238) was 0.30. For the same compound, the “Ratio peptide treated:control, cathepsin H” value (X16832) was 0.47, the “Ratio peptide treated:control, protein kinase C, alpha” value (X52479) was 2.4 and the “Ratio peptide treated:control, glycoprotein IX” value (X52997) was 3.4. The “Ratio peptide treated:control, glypican 1” value (X54232) was 3.2, the “Ratio peptide treated:control, jun D proto-oncogene” value (X56681) was 0.35 and the “Ratio peptide treated:control, proteasome subunit alpha type, 6” value (X59417) was 0.31. For the same compound, the “Ratio peptide treated:control, Sp3 transcription factor” value (X68560) was 3.6, the “Ratio peptide treated:control, Vacuolar proton-ATPase, subunit D; V-ATPase, subunit D” value (X71490) was 4.0 and the “Ratio peptide treated:control, chymotrypsin-like protease” value (X71877) was 2.9. For the same compound, the “Ratio peptide treated:control, phosphorylase kinase alpha 1” value (X73874) was 7.1, the “Ratio peptide treated:control, zinc finger protein 266” value (X78924) was 2.2 and the “Ratio peptide treated:control, ribosomal protein L11” value (X79234) was 0.32. The “Ratio peptide treated:control, translational inhibitor protein p14.5” value (X95384) was 3.0, the “Ratio peptide treated:control, c-fos induced growth factor” value (Y12864) was 2.3 and the “Ratio peptide treated:control, disintegrin protease” value (Y13323) was 0.21. The “Ratio peptide treated:control, matrix metalloproteinase 7” value (Z11887) was 0.49, the “Ratio peptide treated:control, proteoglycan 2” value (Z26248) was 9.3 and the “Ratio peptide treated:control, matrix metalloproteinase 14” value (Z48481) was 0.32. For the same compound, the “Ratio peptide treated:control, POU domain, class 2, associating factor 1” value (Z49194) was 2.8 and the “Ratio peptide treated:control, protease inhibitor 12” value (Z81326) was 0.48.
